Test results taken from US7217688B2, “Methods and compositions for derepression of IAP-inhibited caspase” (The Burnham Institute, priority 2005, dated 2007).
Square brackets hold non-standard residues; d marks the D form. Ends that are not written are not given here. Peptide text beside a SMILES is read from it. * marks the point of attachment. 5TAMRA = CN(C)c1ccc2c(c1)Oc1cc(N(C)C)ccc1C21OC(=O)c2cc(C(=O)*)ccc21; Phe(4-Cl) = N[C@@H](Cc1ccc(Cl)cc1)C(=O)O; 2Nal = N[C@@H](Cc1ccc2ccccc2c1)C(=O)O; Fmoc = O=C(OCC1c2ccccc2-c2ccccc21)*; 2Thi = N[C@@H](Cc1cccs1)C(=O)O

Assays:
GST-XIAP BIR2 = assay: binding of XIAP-BIR2 to biotinylated peptides on Neutravidin plates; details: biotinylated peptides adsorbed to Neutravidin-coated plates
GST-XIAP BIR2, sequence (P98170 124-240 limits assumed): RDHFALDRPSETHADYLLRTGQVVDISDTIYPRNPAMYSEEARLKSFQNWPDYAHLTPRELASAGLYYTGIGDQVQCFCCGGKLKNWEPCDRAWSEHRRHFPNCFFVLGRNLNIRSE
Text: Bound GST polypeptides were detected with an anti-GST antibody.

XIAP-inhibited caspase-3 = molecular target: T1, XIAP-inhibited caspase-3 (Homo sapiens, UniProt P98170); assay: caspase derepression assay (XIAP-inhibited caspase-3, Ac-DEVD-AFC hydrolysis); type: biochemical
T1 construct: in the derepression assay using full length XIAP; made in house; host or cells: bacteria
T1 sequence (P98170 whole entry): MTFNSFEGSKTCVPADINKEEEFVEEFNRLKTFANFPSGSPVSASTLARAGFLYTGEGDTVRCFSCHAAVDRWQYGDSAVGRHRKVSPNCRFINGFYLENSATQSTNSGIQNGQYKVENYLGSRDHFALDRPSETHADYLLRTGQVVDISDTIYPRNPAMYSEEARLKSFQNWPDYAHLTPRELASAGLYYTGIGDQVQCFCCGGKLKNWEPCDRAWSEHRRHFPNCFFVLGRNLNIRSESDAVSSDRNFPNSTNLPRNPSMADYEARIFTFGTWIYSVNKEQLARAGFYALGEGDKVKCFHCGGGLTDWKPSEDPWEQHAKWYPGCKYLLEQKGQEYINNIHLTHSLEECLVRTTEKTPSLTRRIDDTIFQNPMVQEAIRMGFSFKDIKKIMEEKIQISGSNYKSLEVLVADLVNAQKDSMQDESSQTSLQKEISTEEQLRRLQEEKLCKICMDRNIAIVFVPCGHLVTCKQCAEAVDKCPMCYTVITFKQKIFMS
Method: Caspase activity was assayed by release of 7-amino-4-trifluoromethyl-coumarin (AFC) from Ac-DEVD-AFC synthetic peptide using a Molecular Devices Spectromax 340 (see Zhou et al., J. Biol. Chem. 272:7797–7800 (1997)). […] The ratio of Vmax for hydrolysis of Ac-DEVD-AFC in the presence and absence of the candidate mixture was calculated and used to identify those that contain an agent that derepresses an IAP-inhibited caspase.
Screening of each mixture from the DCR390, TPI 1239 or TPI 1328 library, respectively, using the above described assay was carried out as follows. Each mixture was aliquoted in a 25 microliter volume and in duplicate to a well of a 96 well microtiter plate. […] Fluorescence of liberated AFC was immediately detected from each well for 30 minutes at 30 second intervals. The Vmax for hydrolysis of AC-DEVD-AFC from each well was measured using the softmax software package. Results of the screen for the DCR390 library are shown in Table I. Sets of mixtures having the same position fixed with different respective amino acids are arranged in 6 sections identified with the position number. […] The mixture in each section are arranged in descending order according to apparent velocity in the second column.
Briefly, recombinant proteins were produced in bacteria and purified as described, for example, in Deveraux et al., Nature 388:300–304(1997). […] Generation of fluorogenic AFC (7-amino-4-trifluoromethyl coumarin) product was measured with a spectrofluorometric plate reader in kinetic mode for 30 minutes at 37° C. using excitation and emission wavelengths of 405 nm and 510 nm, respectively. […] Control reactions lacked XIAP, and all assays were conducted in the linear range of substrate hydrolysis to avoid substrate depletion artifacts.

full length XIAP = full length XIAP (Homo sapiens, UniProt P98170); assay: potency of IAP antagonists at restoring caspase-3 activity / SMAC competition assay (Table VIII); details: for EC50: amount of compound necessary to restore caspase-3 activity to 50% of Vmax; for Relative Potency: fold relative to SMAC AVPI tetrapeptide
full length XIAP, sequence (P98170 whole entry): as above

[1] = system: NCI panel of 60 tumor cell lines; assay: NCI panel of 60 tumor cell lines, protein-based colorimetric assay; set-up: species or system human; details: 48 hours
Method: Selected polyphenylurea compounds were tested on the National Cancer Institute (NCI) panel of 60 tumor cell lines (see FIG. 28a and FIG. 29).

[2] = system: PPC1 prostate cancer cells; assay: PPC1 tumor xenograft; type: in vivo, Balb/C nu-/nu- mice; details: 30 mg/kg i.p. for 2 or 3 days
Text: Similar data was obtained using TPI 1396-22 (see FIG. 33a and 33b). […] In FIG. 33b, the mice were sacrificed at day 19 and the tumors excised and weighed.

[3] = system: mouse embryo fibroblasts (MEFs); assay: mechanism-based toxicity in MEFs from XIAP -/- and wild type mice (MTT); type: cell-based; details: MEFs with or without SV40 large T antigen
Method: Cells were either tested directly at low passage (FIGS. 38A and C) or after transformation by infection with a retrovirus encoding SV40 large T antigen (FIGS. 38B and D). […] Cell viability was measured by MTT assay, expressing data as a percentage relative to control, untreated cells. Data shown in FIG. 38A–D represent mean±standard deviation of triplicate determinations.

[4] = system: NCI panel of 60 tumor cell lines; details: same assay, comparison drug; cited from earlier work
[5] = system: ALVA31 prostate cancer cells; assay: ALVA31 cell viability (XTT dye-reduction and trypan blue exclusion); type: cell-based; details: peptides 40 μM, VP-16 100 μM, 24 hrs
Method: The in vivo effects of TPI 792-33 or TPI 792-35, either individually or in combination with the cytotoxic anticancer drug VP-16 (etoposide), on derepression of XIAP-inhibited caspase and viability of ALVA31 cells was determined as follows. ALVA31 prostate cancer cells were seeded onto 96 well plates (10^4 cells/well) in 100 μL RPMI containing 2.5% fetal bovine serum (FBS). […] After another 24 hrs incubation, cell viability was measured by the XTT dye-reduction assay (Roche, Molecular Biochemicals; Indianapolis, Ind.) and trypan blue dye exclusion assay.

GST-BIR2 (XIAP fragment) = assay: fluorescence polarization binding of rhodamine-SMAC
Method: Assays were run in 50 mM Tris @ pH 7.2/100 mM NaCl/0.1% BSA.

Jurkat leukemia cells = assay: Jurkat cell death (Annexin V / propidium iodide flow cytometry); type: cell-based; details: for % nonviable cells: 20 hours; for cells killed: one day treatment
Method: The following assay was used to test the ability of individual compounds from the TPI 1396 and TPI 1391 libraries to induce apoptosis of cultured tumor cell lines. Each of the compounds listed in Table IX was individually added to Jurkat leukemia cells (6.25×10^5 cells/mL) in RPMI containing 2.5% FBS at various concentrations for 20 hours. After incubation, cells were washed and stained with FITC-conjugated Annexin V antibody and propidium iodide (Biovision; Mountain View, Calif.). Cells were incubated for 20 minutes at room temperature in the dark and fluorescence was measured by flow cytometry (FACScan, Immunocytometry system; Becton-Dickinson; San Jose, Calif.). Cells staining positive for Annexin V were deemed non-viable.

[6] = system: normal bone marrow mononuclear cells; assay: normal bone marrow cell toxicity (Annexin V); type: cell-based; details: 5 μM, 20 hours
Method: After incubation, cells were washed, stained with FITC-conjugated Annexin V antibody and propidium iodide, and fluorescence measured by flow cytometry as described above.

## TPI 1554-1: biotinylated TPI 1453-1 ([2Thi][2Nal][Phe(4-Cl)]K(Fmoc); also: biotinylated (site not given here))
GST-XIAP BIR2
  binding to XIAP-BIR2: comparable to the binding of SMAC peptides

## COc1ccc(CCN2CCCC2CN(C(=O)Nc2ccccc2)C(CNC(=O)Nc2ccccc2)Cc2ccc3ccccc3c2)cc1 (stereo not shown) [TPI 1396-22]
XIAP-inhibited caspase-3; Table X, R2 = L-Proline
  Activity (relative caspase-3 activity, ratio of Vmax with compound to Vmax of caspase-3 and XIAP controls): 3.3
XIAP-inhibited caspase-3; active / inactive
  activity in the derepression assay using full length XIAP: active
Full length XIAP
  EC50: 45.3 µM
  Relative Potency: 2.8
[1]
  average LD50 for the 60 cell lines: 11 ± 2.6 µM
  median LD50 for the 60 cell lines: 22 µM
[2]
  tumor growth / tumor size: significantly slowed the rate of growth

## TPI 1554-2: biotinylated TPI 1453-6 ([2Thi][2Nal][dK](Fmoc)K(Fmoc); also: biotinylated (site not given here))
GST-XIAP BIR2
  binding to XIAP-BIR2: comparable to the binding of SMAC peptides

## COc1cccc2c1C(=O)c1c(O)c3c(c(O)c1C2=O)C[C@@](O)(C(C)=O)C[C@@H]3O[C@H]1C[C@H](N)[C@H](O)[C@H](C)O1 [daunorubicin]
[3]
  selectivity for transformed versus non-transformed cells: do not display selectivity for transformed cells

## COc1cc([C@@H]2c3cc4c(cc3[C@@H](O[C@@H]3O[C@@H]5CO[C@@H](C)O[C@H]5[C@H](O)[C@H]3O)[C@H]3COC(=O)[C@H]23)OCO4)cc(OC)c1O [VP-16, etoposide]
[4]
  mean LD50 in the NCI panel of 60 tumor cell lines: 200 ± 2.5 µM
[5]
  effect on cell viability, agent alone: essentially no effect

## CC[C@H](C)[C@H](NC(=O)[C@@H]1CCCN1C(=O)[C@@H](NC(=O)[C@H](C)N)C(C)C)C(=O)N[C@@H](C)C(=O)N[C@@H](CCC(N)=O)C(=O)N[C@@H](CCCCNC(=O)c1ccc2c(c1)C(=O)OC21c2ccc(N(C)C)cc2Oc2cc(N(C)C)ccc21)C(N)=O [Rhodamine-SMAC] (H-AVPIAQK(5TAMRA)-NH2; N-terminus and C-terminus assumed)
GST-BIR2 (XIAP fragment)
  Kd: 20 µM

## CC(C)CC1CN(C(CNCc2ccccc2)Cc2ccc3ccccc3c2)C(=O)C(=O)N1CCc1cccc(C(F)(F)F)c1 (stereo not shown) [TPI 1391-28]
Jurkat leukemia cells; 1 μM
  % nonviable cells: 19%
Jurkat leukemia cells; 5 μM (first column headed 5)
  % nonviable cells: 12%
Jurkat leukemia cells; 5 μM (second column headed 5)
  % nonviable cells: 28%
Jurkat leukemia cells; 5 μM
  cells killed: about 45%
Jurkat leukemia cells; 8 μM
  cells killed: ~80%
Jurkat leukemia cells; 10 μM
  % nonviable cells: 55%
Jurkat leukemia cells; 25 μM
  % nonviable cells: 87%
Jurkat leukemia cells; 50 μM
  % nonviable cells: 91%
Jurkat leukemia cells; one-day exposure, 0 to 20 μM, read-out: EC50 for killing Jurkat leukemia cells
  EC50: ~6.5 µM
Full length XIAP
  EC50: 25.1 µM
  Relative Potency: 5
[6]
  toxicity to normal bone marrow cells: little toxicity
